Data published in PMC9822022, “Biginelli Reaction Synthesis of Novel Multitarget-Directed Ligands with Ca^2+ Channel Blocking Ability, Cholinesterase Inhibition, Antioxidant Capacity, and Nrf2 Activation” (Molecules, 2022).
Values joined by “and” are separate entries in the source; they are usually repeats but may differ in a detail not shown here. Identical values can stand only once.

Columns and labels:
[1] = molecular target: T1, hAChE (AChE from human erythrocytes) (Homo sapiens, UniProt P22303); test: biochemical; format: biochemical; conditions: for IC50: ± SD
T1 construct: AChE from human erythrocytes; purchased Sigma Aldrich; host or cells: human erythrocytes (natural source)
T1 sequence (P22303 other isoform, or with tags, fused parts or gaps): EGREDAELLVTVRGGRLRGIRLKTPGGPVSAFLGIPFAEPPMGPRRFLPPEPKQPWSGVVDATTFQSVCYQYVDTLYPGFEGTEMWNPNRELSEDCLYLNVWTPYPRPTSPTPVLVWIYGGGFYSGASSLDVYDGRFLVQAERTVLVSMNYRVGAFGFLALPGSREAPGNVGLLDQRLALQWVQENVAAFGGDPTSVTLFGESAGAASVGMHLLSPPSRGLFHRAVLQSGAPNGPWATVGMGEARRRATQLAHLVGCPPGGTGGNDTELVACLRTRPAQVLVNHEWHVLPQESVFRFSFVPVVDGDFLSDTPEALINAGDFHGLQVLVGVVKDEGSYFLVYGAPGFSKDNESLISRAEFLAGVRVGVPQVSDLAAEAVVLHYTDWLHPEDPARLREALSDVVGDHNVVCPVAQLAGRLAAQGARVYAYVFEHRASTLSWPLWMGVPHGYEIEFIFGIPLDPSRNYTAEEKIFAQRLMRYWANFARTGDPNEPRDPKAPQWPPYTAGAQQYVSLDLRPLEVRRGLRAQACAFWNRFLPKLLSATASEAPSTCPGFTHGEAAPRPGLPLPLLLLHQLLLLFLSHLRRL
Procedure: The inhibitory capacity of the compounds on AChE biological activity was evaluated using the spectrometric method of Ellman [27]. Acetyl- or butyrylthiocholine iodide and 5,5-dithiobis- (2-nitrobenzoic) acid (DTNB) were purchased from Sigma Aldrich. […] AChE from human erythrocytes (buffered aqueous solution, ≥500 units/mg protein (BCA), Sigma Aldrich) was diluted in 20 mM HEPES buffer, pH 8, 0.1% Triton X-100, to obtain an enzyme solution with 0.25 unit/mL enzyme activity. In the procedure, 100 µL of 0.3 mM DTNB dissolved in phosphate buffer pH 7.4 was added to the 96-well plate followed by 50 µL of test compound solution and 50 µL of enzyme (0.05 U final). After 5 min of preincubation at 25 °C, the reaction was then initiated by the injection of 50 µL of 10 mM acetyl- or butyrylthiocholine iodide solution. […] Assays were performed in singlicate during three independent tests, with a blank containing all components except acetyl- or butyrylthiocholine in order to account for non-enzymatic reaction. The reaction slopes were compared, and the percent inhibition due to the presence of test compounds was calculated by the following: 100 − (vi/v0 × 100) where vi is the rate calculated in the presence of inhibitor and v0 is the enzyme activity.

[2] = molecular target: eqBuChE (BuChE from equine serum) (Equus caballus, UniProt P81908); test: biochemical; conditions: ± SD
Sequence of eqBuChE (BuChE from equine serum) (P81908 whole entry): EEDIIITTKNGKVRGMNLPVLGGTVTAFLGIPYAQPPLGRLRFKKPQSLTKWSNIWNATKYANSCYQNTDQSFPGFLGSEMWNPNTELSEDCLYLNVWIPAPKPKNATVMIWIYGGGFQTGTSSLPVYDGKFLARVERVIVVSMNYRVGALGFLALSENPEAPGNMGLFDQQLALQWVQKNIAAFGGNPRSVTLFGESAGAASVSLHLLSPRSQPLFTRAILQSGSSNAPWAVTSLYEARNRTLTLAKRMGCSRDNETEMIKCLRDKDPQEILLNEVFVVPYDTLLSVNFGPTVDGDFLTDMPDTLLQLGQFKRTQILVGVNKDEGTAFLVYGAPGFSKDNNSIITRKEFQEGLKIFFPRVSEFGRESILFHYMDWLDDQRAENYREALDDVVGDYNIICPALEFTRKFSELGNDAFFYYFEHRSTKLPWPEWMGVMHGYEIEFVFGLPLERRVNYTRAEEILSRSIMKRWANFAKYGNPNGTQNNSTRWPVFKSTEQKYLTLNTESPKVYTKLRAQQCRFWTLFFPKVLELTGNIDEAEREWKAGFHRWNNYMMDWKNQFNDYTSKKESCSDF

calcium channel = test: Ca+2 channel blockade, FLIPR Calcium 6 in SH-SY5Y cells; format: cell-based; conditions: KCl/CaCl2 triggered, ± SD
Procedure: The Ca^+2 channel blockade capacity of compounds BIGI 4a-d and BIGI 5a-d, and nimodipine as standard, at 10 μM concentration was carried out following the usual methodology [28].
The evaluation of the calcium channel blockade of compounds BIGI 4a-d and BIGI 5a-d was carried out using FLIPR Calcium 6 indicator according to previously described protocols [35, 36]. In brief, FLIPR-loaded SH-SY5Y cells were exposed to nimodipine (10 µM, reference inhibitor), DMSO (0.1%, vehicle), or our compounds of interest (10 µM) for 10 min. […] Data were gathered in three independent experiments with eight technical replicates per experiment. Outlier detection by Grubbs’ test was performed and outlying values were excluded from further analysis.

[3] = ORAC-FL antioxidant assay; conditions: for ORAC: Trolox equivalents, mean (n = 3) ± SEM; for times less active than melatonin (ORAC): on average
Procedure: The antioxidant activity of compounds BIGI 4a-d and BIGI 5a-d was determined by the ORAC-FL method. [29] Their radical scavenging properties are expressed as Trolox equivalents (TE) units.
The antioxidant activity of hybrids BIGI 4a-d and BIGI 5a-d was measured by ORAC-FL assay using fluorescein as a fluorescent probe. Briefly, fluorescein and antioxidant were incubated in a black 96-well microplate (Nunc) for 15 min at 37 °C. 2,2′-Azobis(amidinopropane) dihydrochloride was then added quickly using the built-in injector of a Varioskan Flash plate reader (Thermo Scientific, Waltham, MA, USA). […] All the reactions were made in triplicate and at least three different assays were performed for each sample.

Nrf2-ARE [4] = test: Nrf2/ARE-luciferase reporter cell assay; format: cell-based; conditions: for Induction of the Nrf2 transcriptional pathway: 24 h, 5, 10 and 50 μM (up to 100 μM for BIGI 5d); for CD (concentration required to double the specific luciferase reporter activity): 24 h treatment, means ± SEM
Procedure: The Nrf2-ARE-activating effect of BIGI 4b, BIGI 4d, BIGI 5b, and BIGI 5d, the most balanced compounds against cholinesterase inhibition, calcium channel blockade, and antioxidant power, was determined in vitro using a cell-based luciferase assay in the AREc32 cell line, which represents a good model for the redox-dependent activation of Nrf2 [31]. TBHQ was used as the positive control.
AREc32 cells were treated over 24 h with increasing concentrations of each compound (5, 10, 50, 100 μM) and then luciferase activity was measured. Preliminarily, the cytotoxicity of compounds against AREc32 cells were evaluated, showing no toxicity until 50 μM for compounds BIGI 4b, BIGI 4d, and BIGI 5b and until 100 μM for compound BIGI 5d.
CD values (i.e., the concentration required to double the specific activity of the luciferase reporter) were calculated to compare the relative potencies.
Treatment of stable ARE-luciferase reporter cells with the tested compounds and evaluation of the luciferase activity: The NRF2/ARE-luciferase reporter HEK293 stable cell line (Signosis, Santa Clara, CA, USA) was maintained in Dulbecco’s MEM high-glucose (DMEM) medium supplemented with 10% FBS and penicillin–streptomycin at 37 °C in 95% air/5% CO2. For treatment, the cells were seeded at a density of 2 × 10^4 per well in 96-well white microtiter plates. After 48 h, the culture medium was replaced with fresh DMEM supplemented with 0.1% FBS containing different concentrations of the tested compounds or DMSO (0.1%) in duplicate. Luciferase activity was measured after 24 h of treatment using the Bright-Glo luciferase assay system (Promega) according to the manufacturer’s instructions.

AREc32 cells = test: Cytotoxicity against reporter cells (MTT); format: cell-based
Procedure: […]. Preliminarily, the cytotoxicity of compounds against AREc32 cells were evaluated, showing no toxicity until 50 μM for compounds BIGI 4b, BIGI 4d, and BIGI 5b and until 100 μM for compound BIGI 5d.
Treatment of stable ARE-luciferase reporter cells with the tested compounds and evaluation of the cellular viability: The NRF2/ARE-luciferase reporter HEK293 stable cell line was seeded and treated as described for the luciferase activity determination, except that transparent culture plates were used instead of white plates. After 24 h of incubation with the tested compounds, the percent of cell viability was measured using MTT assay.

Nrf2-ARE [5] = system: Nrf2-ARE; set-up: method as in PMID 31838896; conditions: cited from earlier work

Row | SMILES | fold less active than Donepezil (hAChE) [1] | IC50 [1] | IC50 [2] | Calcium Antagonism (% Inhibition at 10 μM) (calcium channel) | ORAC [3] | times less active than melatonin (ORAC) [3] | Induction of the Nrf2 transcriptional pathway (Nrf2-ARE [4]) | CD (concentration required to double the specific luciferase reporter activity) (Nrf2-ARE [4]) | Cytotoxicity: no toxicity until concentration (AREc32 cells) | CD (Nrf2-ARE [5]) | fold less active than TBHQ (CD) (Nrf2-ARE [4]) | times more active than melatonin (CD) (Nrf2-ARE [4]) | CD (concentration required to double the specific luciferase reporter activity) (Nrf2-ARE [4]; listed as 5d)
1 | C#CCOc1ccc(C2NC(=O)N(CCC3CCN(Cc4ccccc4)CC3)C(C)=C2C(=O)OCC)cc1 (stereo not shown) [BIGI 4b, Ethyl 1-(2-(1-benzylpiperidin-4-yl)ethyl)-6-methyl-2-oxo-4-(4-(prop-2-yn-1-yloxy)phenyl)-1,2,3,4-tetrahydropyrimidine-5-carboxylate] | 27 fold | 0.342 ± 0.064 µM | 4.78 ± 0.58 µM | 67 ± 10% | 1.60 TE and 1.60 ± 0.15 TE | ~1.4 times | able to successfully induce the Nrf2 transcriptional pathway | 7.1 µM and 7.1 ± 0.8 µM | 50 µM | – | – | – | –
2 | C#CCOc1ccc(C2NC(=O)N(CC3CCN(Cc4ccccc4)CC3)C(C)=C2C(=O)OCC)cc1 (stereo not shown) [BIGI 4a, Ethyl 1-((1-benzylpiperidin-4-yl)methyl)-6-methyl-2-oxo-4-(4-(prop-2-yn-1-yloxy)phenyl)-1,2,3,4-tetrahydropyrimidine-5-carboxylate] | – | > 1 µM | 31.2 ± 1.7 µM | 45 ± 11% | 1.44 ± 0.06 TE | – | – | – | – | – | – | – | –
3 | C#CCOc1ccc(C2NC(=S)N(CC3CCN(Cc4ccccc4)CC3)C(C)=C2C(=O)OCC)cc1 (stereo not shown) [BIGI 5a, Ethyl 1-((1-benzylpiperidin-4-yl)methyl)-6-methyl-4-(4-(prop-2-yn-1-yloxy)phenyl)-2-thioxo-1,2,3,4-tetrahydropyrimidine-5-carboxylate] | – | > 1 µM | 7.64 ± 0.79 µM | 46 ± 18% | 1.35 ± 0.04 TE | – | – | – | – | – | – | – | –
4 | C#CCOc1ccc(C2NC(=S)N(CCC3CCN(Cc4ccccc4)CC3)C(C)=C2C(=O)OCC)cc1 (stereo not shown) [BIGI 5b, Ethyl 1-(2-(1-benzylpiperidin-4-yl)ethyl)-6-methyl-4-(4-(prop-2-yn-1-yloxy)phenyl)-2-thioxo-1,2,3,4-tetrahydropyrimidine-5-carboxylate] | 27 fold | 0.352 ± 0.015 µM | 5.43 ± 0.24 µM | 74 ± 16% | 1.41 ± 0.06 TE | – | able to successfully induce the Nrf2 transcriptional pathway | 13.5 µM and 13.5 ± 9.1 µM | 50 µM | – | – | – | –
5 | C#CCCOc1ccc(C2NC(=S)N(CC3CCN(Cc4ccccc4)CC3)C(C)=C2C(=O)OCC)cc1 (stereo not shown) [BIGI 5c, Ethyl 1-((1-benzylpiperidin-4-yl)methyl)-4-(4-(but-3-yn-1-yloxy)phenyl)-6-methyl-2-thioxo-1,2,3,4-tetrahydropyrimidine-5-carboxylate] | – | > 1 µM | 33.8 ± 7.89 µM | 63 ± 18% | 1.75 TE and 1.75 ± 0.06 TE | ~1.4 times | – | – | – | – | – | – | –
6 | C#CCCOc1ccc(C2NC(=O)N(CC3CCN(Cc4ccccc4)CC3)C(C)=C2C(=O)OCC)cc1 (stereo not shown) [BIGI 4c, Ethyl 1-((1-benzylpiperidin-4-yl)methyl)-4-(4-(but-3-yn-1-yloxy)phenyl)-6-methyl-2-oxo-1,2,3,4-tetrahydropyrimidine-5-carboxylate] | – | > 1 µM | > 10 µM | 40± 13% | 0.98 ± 0.03 TE | – | – | – | – | – | – | – | –
7 | COc1ccc2[nH]cc(CCNC(C)=O)c2c1 [Melatonin] | – | – | – | – | – | – | – | – | – | 60 µM | – | – | –
8 | COCCOC(=O)C1=C(C)NC(C)=C(C(=O)OC(C)C)C1c1cccc([N+](=O)[O-])c1 (stereo not shown) [Nimodipine, reference compound] | – | – | – | 50± 10% | – | – | – | – | – | – | – | – | –
9 | C#CCCOc1ccc(C2NC(=S)N(CCC3CCN(Cc4ccccc4)CC3)C(C)=C2C(=O)OCC)cc1 (stereo not shown) [BIGI 5d, Ethyl 1-(2-(1-benzylpiperidin-4-yl)ethyl)-4-(4-(but-3-yn-1-yloxy)phenyl)-6-methyl-2-thioxo-1,2,3,4-tetrahydropyrimidine-5-carboxylate] | – | 1.271 ± 0.005 µM | 8.54 ± 0.71 µM | 68 ± 12% | 1.57 ± 0.13 TE | – | able to successfully induce the Nrf2 transcriptional pathway | 33.4 ± 4.8 µM | 100 µM | – | 42 fold | 2 times | 33.4 µM
10 | C#CCCOc1ccc(C2NC(=O)N(CCC3CCN(Cc4ccccc4)CC3)C(C)=C2C(=O)OCC)cc1 (stereo not shown) [BIGI 4d, Ethyl 1-(2-(1-benzylpiperidin-4-yl)ethyl)-4-(4-(but-3-yn-1-yloxy)phenyl)-6-methyl-2-oxo-1,2,3,4-tetrahydropyrimidine-5-carboxylate] | – | 0.462 ± 0.04 µM | 6.63 ± 0.71 µM | 50 ± 13% | 1.85 TE and 1.85 ± 0.16 TE | ~1.4 times | able to successfully induce the Nrf2 transcriptional pathway | 7.7 µM and 7.7 ± 2.9 µM | 50 µM | – | – | – | –
11 | CC(C)(C)c1cc(O)ccc1O [TBHQ, reference compound] | – | – | – | – | – | – | – | 0.8 µM and 0.8 ± 0.2 µM | – | – | – | – | –
